What follows are compounds tested on HEK293-STF3A cells (assay: STF3A assay (STF luciferase reporter in Wnt3A-expressing HEK293 cells)). Conditions: Homo sapiens, 24 h, 1 day of treatment.
Assay type: cell-based
Description: HEK293-STF cell line was modified from Human embryonic kidney cell line HEK293 transfected with the STF reporter. HEK293-STF3A cell line was further modified from HEK293-STF cell line to express Wnt3A. This cell line was used to identify compounds that regulate either early or late signaling components of the Wnt pathway. These two cell lines were obtained from David Virshup's laboratory, Duke-NUS. L-Wnt3A (ATCC, #CRL-2647) cell line was used for providing Wnt3A conditioned media. The three cell lines were grown in DMEM with 10% FBS incubated in 37° C. with 5% CO2.
2×10^4 HEK293-STF3A cells in 75 μl culture media were seeded in each well of white 96 well plates (Greiner #655098) and incubated overnight at 37° C. 25 μl serially diluted compound was added to the cells to give final concentration of 50 μM to 1.5 nM. After 1 day of treatment, 100 μl of Steady-Glo Luciferase Assay reagent (#E2520, Promega) was added to each well and incubated for 10 minutes at room temperature. Luminescence was measured using Tecan Safire2 plate reader.
In the case of `C[C@@H](C(=O)Nc1ccc(-c2cccnc2)cn1)N1CCCC2=C1C(=O)N(C)C2=O` (single isomer, unassigned) [Compound 92], the IC50 is reported as less than 100 nM. With `C[C@H](C(=O)Nc1ccc(-c2cccnc2)cn1)N1CCCC2=C1C(=O)N(C)C2=O` (single isomer, unassigned) [Compound 93] the IC50 was less than 1000 nM. `C[C@@H](C(=O)Nc1ccc(-c2ccccc2)nn1)N1CCCC2=C1C(=O)N(C)C2=O` (single isomer, unassigned) [Compound 94] showed an IC50 of less than 100 nM. `C[C@H](C(=O)Nc1ccc(-c2ccccc2)nn1)N1CCCC2=C1C(=O)N(C)C2=O` (single isomer, unassigned) [Compound 95] showed an IC50 greater than 10000 nM. For `C[C@@H](C(=O)Nc1ccc(-c2cccnc2)nc1)N1CCCC2=C1C(=O)N(C)C2=O` (single isomer, unassigned) [Compound 116], the IC50 was less than 100 nM. `C[C@H](C(=O)Nc1ccc(-c2cccnc2)nc1)N1CCCC2=C1C(=O)N(C)C2=O` (single isomer, unassigned) [Compound 117] showed an IC50 of less than 1000 nM. With `CN1C(=O)C2=C(C1=O)N(CC(=O)Nc1ccc(-c3ccccn3)cn1)CCC2` [Compound 1, N-([2,3′-bipyridin]-6′-yl)-2-(6-methyl-5,7-dioxo-2,3,4,5,6,7-hexahydro-1H-pyrrolo[3,4-b]pyridin-1-yl)acetamide] the IC50 was less than 100 nM. For `CN1C(=O)C2=C(C1=O)N(CC(=O)Nc1ccc(-c3nccs3)cc1)CCC2` [Compound 2, 2-(6-methyl-5,7-dioxo-2,3,4,5,6,7-hexahydro-1H-pyrrolo[3,4-b]pyridin-1-yl)-N-(4-(thiazol-2-yl)phenyl)acetamide], the IC50 was less than 100 nM. `CN1C(=O)C2=C(C1=O)N(CC(=O)Nc1ccc(-c3ccccc3)nn1)CCC2` [Compound 3, 2-(6-methyl-5,7-dioxo-2,3,4,5,6,7-hexahydro-1H-pyrrolo[3,4-b]pyridin-1-yl)-N-(6-phenylpyridazin-3-yl)acetamide] showed an IC50 of less than 100 nM. `CN1C(=O)C2=C(C1=O)N(CC(=O)Nc1ccc(-c3ccc(F)cc3)nn1)CCC2` [Compound 4, N-(6-(4-fluorophenyl)pyridazin-3-yl)-2-(6-methyl-5,7-dioxo-2,3,4,5,6,7-hexahydro-1H-pyrrolo[3,4-b]pyridin-1-yl)acetamide] was tested, and the IC50 was less than 100 nM. In the case of `CN1C(=O)C2=C(C1=O)N(CC(=O)Nc1ccc(-c3ccccc3)cn1)CCC2` [Compound 5, 2-(6-methyl-5,7-dioxo-2,3,4,5,6,7-hexahydro-1H-pyrrolo[3,4-b]pyridin-1-yl)-N-(5-phenylpyridin-2-yl)acetamide], the IC50 is reported as less than 100 nM. `CN1C(=O)C2=C(C1=O)N(CC(=O)Nc1ccc(-c3nccs3)cn1)CCC2` [Compound 6, 2-(6-methyl-5,7-dioxo-2,3,4,5,6,7-hexahydro-1H-pyrrolo[3,4-b]pyridin-1-yl)-N-(5-(thiazol-2-yl)pyridin-2-yl)acetamide] showed an IC50 of less than 100 nM. `CN1C(=O)C2=C(C1=O)N(CC(=O)Nc1ccc(-c3ccc(F)cc3)cn1)CCC2` [Compound 7, N-(5-(4-fluorophenyl)pyridin-2-yl)-2-(6-methyl-5,7-dioxo-2,3,4,5,6,7-hexahydro-1H-pyrrolo[3,4-b]pyridin-1-yl)acetamide] showed an IC50 of less than 100 nM. Compound `CN1C(=O)C2=C(C1=O)N(CC(=O)Nc1ccc(-c3cccnc3)cn1)CCC2` [Compound 8, N-([3,3′-bipyridin]-6-yl)-2-(6-methyl-5,7-dioxo-2,3,4,5,6,7-hexahydro-1H-pyrrolo[3,4-b]pyridin-1-yl)acetamide] has an IC50 of less than 100 nM. Compound `CN1C(=O)C2=C(C1=O)N(CC(=O)Nc1ccc(-c3cccnc3)nc1)CCC2` [Compound 10, N-([2,3′-bipyridin]-5-yl)-2-(6-methyl-5,7-dioxo-2,3,4,5,6,7-hexahydro-1H-pyrrolo[3,4-b]pyridin-1-yl)acetamide] has an IC50 of less than 100 nM. Work on `CC(C(=O)Nc1ccc(-c2cccnc2)cn1)N1CCCC2=C1C(=O)N(C)C2=O` (stereo not shown) [Compound 11, N-([3,3′-bipyridin]-6-yl)-2-(6-methyl-5,7-dioxo-2,3,4,5,6,7-hexahydro-1H-pyrrolo[3,4-b]pyridin-1-yl)propanamide] yielded an IC50 of less than 100 nM.
